Measured values published in paper PMC5762309 (Oncotarget, 2017).
Values joined by “and” are separate entries in the source; they are usually repeats but may differ in a detail not shown here. Equal entries are not always repeated. Where two headings read alike, the source gives them in different places.

Experiments:
[1] = target: T1, p38-alpha (Homo sapiens, UniProt Q16539); assay: KINOMEScan; assay type: binding; design: dose or concentration left out as unconfirmed
T1 construct: purchased DiscoverX KINOMEscan
T1 sequence (Q16539 whole entry): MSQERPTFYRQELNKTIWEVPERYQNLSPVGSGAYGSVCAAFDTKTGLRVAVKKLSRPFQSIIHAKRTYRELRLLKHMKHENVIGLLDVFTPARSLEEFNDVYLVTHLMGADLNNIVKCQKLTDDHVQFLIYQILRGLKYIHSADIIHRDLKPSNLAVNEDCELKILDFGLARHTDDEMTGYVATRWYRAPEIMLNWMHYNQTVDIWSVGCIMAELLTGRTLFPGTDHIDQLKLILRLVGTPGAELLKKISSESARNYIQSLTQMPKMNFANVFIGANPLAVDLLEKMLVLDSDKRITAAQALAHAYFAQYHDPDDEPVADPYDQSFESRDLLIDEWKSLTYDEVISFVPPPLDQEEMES

[2] = target: T2, KIT V559D (Homo sapiens, UniProt P10721, V559D); assay: KIT auto-phosphorylation in transformed BaF3 cells; conditions: 2h
Target sequence in this assay (P10721 546-976 V559D): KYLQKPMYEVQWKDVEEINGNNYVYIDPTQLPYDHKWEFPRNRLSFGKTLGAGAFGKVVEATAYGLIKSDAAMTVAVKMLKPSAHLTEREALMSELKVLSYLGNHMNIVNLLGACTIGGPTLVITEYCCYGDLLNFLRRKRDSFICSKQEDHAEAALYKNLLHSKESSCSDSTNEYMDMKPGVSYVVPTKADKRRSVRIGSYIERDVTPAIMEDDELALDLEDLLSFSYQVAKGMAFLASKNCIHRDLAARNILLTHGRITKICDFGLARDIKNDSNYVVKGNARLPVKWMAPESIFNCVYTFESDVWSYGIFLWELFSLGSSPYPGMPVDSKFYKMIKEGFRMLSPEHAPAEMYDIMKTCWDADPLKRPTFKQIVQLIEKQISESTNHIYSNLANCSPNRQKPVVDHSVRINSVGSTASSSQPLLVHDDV

[3] = target: T3, CDK8 (Homo sapiens, UniProt P49336); assay: KINOMEScan; assay type: binding; design: dose or concentration left out as unconfirmed
T3 construct: purchased DiscoverX KINOMEscan

[4] = target: T4, EGFR(G719C) (Homo sapiens, UniProt P00533, G719C); assay: KINOMEScan; assay type: binding; design: dose or concentration left out as unconfirmed
T4 construct: purchased DiscoverX KINOMEscan

[5] = target: T5, BTK (Homo sapiens, UniProt Q06187); assay: KINOMEScan; assay type: binding; design: dose or concentration left out as unconfirmed
T5 construct: purchased DiscoverX KINOMEscan

[6] = target: T2, KIT V559D; assay: ADP-Glo biochemical assay; design: Kit V559D encoding residues 545-976 with His tag; His tag; made in house; host or cells: SF9 insect cells (baculovirus)
Target sequence in this assay (P10721 545-976 V559D): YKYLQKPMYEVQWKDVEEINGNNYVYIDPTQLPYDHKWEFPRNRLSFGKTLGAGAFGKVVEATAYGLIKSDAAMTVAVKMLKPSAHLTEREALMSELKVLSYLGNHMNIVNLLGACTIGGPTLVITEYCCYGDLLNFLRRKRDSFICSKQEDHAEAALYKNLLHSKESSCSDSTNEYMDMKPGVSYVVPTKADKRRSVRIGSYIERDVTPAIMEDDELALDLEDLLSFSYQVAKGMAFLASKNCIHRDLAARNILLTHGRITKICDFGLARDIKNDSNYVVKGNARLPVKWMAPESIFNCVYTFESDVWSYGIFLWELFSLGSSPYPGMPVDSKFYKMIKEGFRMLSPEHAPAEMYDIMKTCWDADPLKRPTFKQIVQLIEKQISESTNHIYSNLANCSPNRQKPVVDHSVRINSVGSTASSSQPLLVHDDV

[7] = tested on: BaF3-TEL-KIT-V559D tumors; assay: BaF3-TEL-KIT-V559D allograft model
[8] = target: T6, TYK2(JH2domain-pseudokinase) (Homo sapiens, UniProt P29597); assay: KINOMEScan; assay type: binding; design: dose or concentration left out as unconfirmed
T6 construct: TYK2(JH2domain-pseudokinase); purchased DiscoverX KINOMEscan
T6 sequence (P29597 556-888 limits assumed): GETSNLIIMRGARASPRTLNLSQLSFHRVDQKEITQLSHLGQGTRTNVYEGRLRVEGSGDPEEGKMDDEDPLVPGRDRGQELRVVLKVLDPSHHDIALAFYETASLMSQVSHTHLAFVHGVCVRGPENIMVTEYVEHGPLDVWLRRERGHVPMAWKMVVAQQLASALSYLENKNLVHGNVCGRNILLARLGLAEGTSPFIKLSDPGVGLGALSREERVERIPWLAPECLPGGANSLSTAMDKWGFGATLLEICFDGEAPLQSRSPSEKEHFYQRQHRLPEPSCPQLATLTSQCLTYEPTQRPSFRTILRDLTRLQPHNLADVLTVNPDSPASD

[9] = target: T7, JNK1 (Homo sapiens, UniProt P45983); assay: KINOMEScan; assay type: binding; design: dose or concentration left out as unconfirmed
T7 construct: purchased DiscoverX KINOMEscan

[10] = target: KIT D816V (Homo sapiens, UniProt P10721, D816V); assay: KIT auto-phosphorylation in transformed BaF3 cells; conditions: 2h
Chain of KIT D816V (P10721 26-976 D816V): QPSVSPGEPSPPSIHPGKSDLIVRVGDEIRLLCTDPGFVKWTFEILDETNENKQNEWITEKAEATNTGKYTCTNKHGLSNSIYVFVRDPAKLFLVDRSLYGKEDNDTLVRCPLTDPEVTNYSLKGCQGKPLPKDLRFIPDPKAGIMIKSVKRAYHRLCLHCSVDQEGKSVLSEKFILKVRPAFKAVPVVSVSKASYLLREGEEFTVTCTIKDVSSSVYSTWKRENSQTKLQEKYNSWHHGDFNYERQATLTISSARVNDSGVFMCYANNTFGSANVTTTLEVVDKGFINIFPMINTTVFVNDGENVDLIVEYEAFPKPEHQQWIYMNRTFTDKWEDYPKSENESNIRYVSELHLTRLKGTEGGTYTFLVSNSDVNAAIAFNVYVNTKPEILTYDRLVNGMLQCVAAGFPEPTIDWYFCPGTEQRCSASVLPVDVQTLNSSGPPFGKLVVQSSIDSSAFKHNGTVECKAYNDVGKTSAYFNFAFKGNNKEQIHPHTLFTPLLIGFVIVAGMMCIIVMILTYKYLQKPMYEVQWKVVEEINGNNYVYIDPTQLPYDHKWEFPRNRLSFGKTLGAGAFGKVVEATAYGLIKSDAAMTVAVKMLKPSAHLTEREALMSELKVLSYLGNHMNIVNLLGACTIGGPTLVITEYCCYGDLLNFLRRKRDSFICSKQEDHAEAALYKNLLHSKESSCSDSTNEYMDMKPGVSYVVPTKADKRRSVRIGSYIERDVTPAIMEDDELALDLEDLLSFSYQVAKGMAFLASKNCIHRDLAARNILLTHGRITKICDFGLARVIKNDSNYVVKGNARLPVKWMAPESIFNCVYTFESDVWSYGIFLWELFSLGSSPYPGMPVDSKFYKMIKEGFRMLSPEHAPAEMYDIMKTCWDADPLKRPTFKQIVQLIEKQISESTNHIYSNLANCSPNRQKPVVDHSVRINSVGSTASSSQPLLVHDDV

[11] = target: T8, TYK2(JH1domain-catalytic) (Homo sapiens, UniProt P29597); assay: KINOMEScan; assay type: binding; design: dose or concentration left out as unconfirmed
T8 construct: TYK2(JH1domain-catalytic); purchased DiscoverX KINOMEscan
T8 sequence (P29597 872-1187 limits assumed): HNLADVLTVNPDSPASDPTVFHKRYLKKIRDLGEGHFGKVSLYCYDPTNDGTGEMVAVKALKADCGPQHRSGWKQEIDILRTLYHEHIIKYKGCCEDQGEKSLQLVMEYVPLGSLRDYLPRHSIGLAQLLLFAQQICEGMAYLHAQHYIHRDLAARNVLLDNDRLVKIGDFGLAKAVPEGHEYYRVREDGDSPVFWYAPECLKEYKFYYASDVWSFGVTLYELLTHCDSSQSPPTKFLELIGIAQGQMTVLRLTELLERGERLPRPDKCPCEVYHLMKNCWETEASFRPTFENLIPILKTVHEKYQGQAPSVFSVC

[12] = target: T9, EGFR (Homo sapiens, UniProt P00533); assay: KINOMEScan; assay type: binding; design: dose or concentration left out as unconfirmed
T9 construct: purchased DiscoverX KINOMEscan

[13] = target: T10, KIT wt (Homo sapiens, UniProt P10721); assay: ADP-Glo biochemical assay; design: wt KIT residues 544-935 with a His tag; His tag; made in house; host or cells: SF9 insect cells (baculovirus); conditions: purified kinase protein, 100 μM ATP
Target sequence in this assay (P10721 544-935): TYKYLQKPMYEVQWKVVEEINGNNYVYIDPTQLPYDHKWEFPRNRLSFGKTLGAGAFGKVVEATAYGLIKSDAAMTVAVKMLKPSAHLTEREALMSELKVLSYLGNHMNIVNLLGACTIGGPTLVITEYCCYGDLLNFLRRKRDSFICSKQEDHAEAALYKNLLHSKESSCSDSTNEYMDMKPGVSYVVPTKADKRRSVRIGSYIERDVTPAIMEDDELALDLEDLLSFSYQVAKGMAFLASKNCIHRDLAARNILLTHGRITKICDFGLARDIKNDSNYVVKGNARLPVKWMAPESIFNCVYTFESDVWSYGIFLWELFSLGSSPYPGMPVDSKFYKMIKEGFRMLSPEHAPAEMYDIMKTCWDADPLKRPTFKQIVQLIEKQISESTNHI

[14] = target: KIT A829P (Homo sapiens, UniProt P10721, A829P); assay: KIT auto-phosphorylation in transformed BaF3 cells
Chain of KIT A829P (P10721 26-976 A829P): as the sequence (P10721 26-976 D816V) above, with V791D, A804P counted along it

[15] = tested on: FLT3(ITD,D835V); assay: KINOMEScan; assay type: binding; design: dose or concentration left out as unconfirmed
[16] = target: T11, ACVR2B (Homo sapiens, UniProt Q13705); assay: KINOMEScan; assay type: binding; design: dose or concentration left out as unconfirmed
T11 construct: purchased DiscoverX KINOMEscan
T11 sequence (Q13705 19-512): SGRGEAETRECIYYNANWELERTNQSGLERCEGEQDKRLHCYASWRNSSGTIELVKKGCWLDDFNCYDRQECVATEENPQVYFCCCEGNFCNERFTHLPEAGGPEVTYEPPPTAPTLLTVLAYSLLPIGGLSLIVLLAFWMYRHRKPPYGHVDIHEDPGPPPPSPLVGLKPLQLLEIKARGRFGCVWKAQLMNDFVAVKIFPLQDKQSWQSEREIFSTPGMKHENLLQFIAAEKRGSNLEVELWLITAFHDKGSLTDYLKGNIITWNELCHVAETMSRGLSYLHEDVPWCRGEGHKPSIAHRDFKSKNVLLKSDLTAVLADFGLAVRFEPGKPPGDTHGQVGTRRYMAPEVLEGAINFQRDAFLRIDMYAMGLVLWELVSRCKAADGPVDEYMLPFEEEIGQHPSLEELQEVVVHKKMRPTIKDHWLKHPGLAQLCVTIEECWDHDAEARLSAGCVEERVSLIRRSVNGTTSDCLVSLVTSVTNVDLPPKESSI

[17] = tested on: BaF3; assay: Anti-proliferation assay, parental BaF3 cells; assay type: cell-based; conditions: Mus musculus, 72 hours, CellTiter-Glo
Procedure: The KIT mutant isogenic BaF3 cells lines and Colo320DM cells were cultured in RPMI 1640 media (Corning, USA) with 10% fetal bovine serum (FBS) and supplemented with 2% L-glutamine 1% penicillin/streptomycin, the BaF3 cell line was cultured in RPMI 1640 media (Corning, USA) with 1% IL-3, 10% fetal bovine serum (FBS) and supplemented with 2% L-glutamine 1% penicillin/streptomycin. All cell lines were maintained in culture media at 37°C with 5% CO2.
Cells were grown in 96-well culture plates (2500/well). The compounds of various concentrations were added into the plates. Cell proliferation was determined after treatment with compounds for 72 hours. Cell viability was measured using the CellTiter–Glo assay (Promega, USA), according to the manufacturer’s instructions, and luminescence was measured in a multi-label reader (Envision, PerkinElmer, USA). Data were normalized to control groups (DMSO) and represented by the mean of three independent measurements with standard error <20%. GI50 values were calculated using Prism 5.0 (GraphPad Software, San Diego, CA).

[18] = target: T12, MAP4K3 (Homo sapiens, UniProt Q8IVH8); assay: KINOMEScan; assay type: binding; design: dose or concentration left out as unconfirmed
T12 construct: purchased DiscoverX KINOMEscan

[19] = target: T2, KIT V559D; assay: Kd determination by MST; assay type: binding; design: Kit V559D encoding residues 545-976 with His tag; His tag; made in house; host or cells: SF9 insect cells (baculovirus); conditions: purified protein
Target sequence in this assay (P10721 545-976 V559D): as the sequence (P10721 545-976 V559D) above

[20] = target: T10, KIT wt; assay: KIT auto-phosphorylation in parental Colo320DM cells; assay type: cell-based; design: Colo320DM cells which express wt KIT kinase; endogenous in cells; host or cells: Colo320DM, SCF-stimulated
Source text: In order to better define CHMFL-KIT-031’s inhibitory effect against KIT V559D mutant, we then tested it with purified KIT wt/V559D kinase protein by ADP-Glo assay (Figure 2A). […] We also transformed and overexpressed KIT V559D transiently into Colo320DM cells which express wt KIT kinase and tested CHMFL-KIT-031’s inhibitory effects for the auto-phosphorylation of KIT Y703, 719 and Y823 sites.
Target sequence in this assay (P10721 26-976): as the sequence (P10721 26-976 D816V) above, with V791D counted along it

[21] = target: T13, CDK11 (Homo sapiens, UniProt Q9BWU1); assay: KINOMEScan; assay type: binding; design: dose or concentration left out as unconfirmed
T13 construct: purchased DiscoverX KINOMEscan

[22] = target: T14, PKMYT1 (Homo sapiens, UniProt Q99640); assay: KINOMEScan; assay type: binding; design: dose or concentration left out as unconfirmed
T14 construct: purchased DiscoverX KINOMEscan

[23] = tested on: EGFR(L747-T751del,Sins); assay: KINOMEScan; assay type: binding; design: dose or concentration left out as unconfirmed
[24] = target: T15, EGFR(L861Q) (Homo sapiens, UniProt P00533, L861Q); assay: KINOMEScan; assay type: binding; design: dose or concentration left out as unconfirmed
T15 construct: purchased DiscoverX KINOMEscan

[25] = target: T16, SIK (Homo sapiens, UniProt P57059); assay: KINOMEScan; assay type: binding; design: dose or concentration left out as unconfirmed
T16 construct: purchased DiscoverX KINOMEscan
T16 sequence (P57059 whole entry): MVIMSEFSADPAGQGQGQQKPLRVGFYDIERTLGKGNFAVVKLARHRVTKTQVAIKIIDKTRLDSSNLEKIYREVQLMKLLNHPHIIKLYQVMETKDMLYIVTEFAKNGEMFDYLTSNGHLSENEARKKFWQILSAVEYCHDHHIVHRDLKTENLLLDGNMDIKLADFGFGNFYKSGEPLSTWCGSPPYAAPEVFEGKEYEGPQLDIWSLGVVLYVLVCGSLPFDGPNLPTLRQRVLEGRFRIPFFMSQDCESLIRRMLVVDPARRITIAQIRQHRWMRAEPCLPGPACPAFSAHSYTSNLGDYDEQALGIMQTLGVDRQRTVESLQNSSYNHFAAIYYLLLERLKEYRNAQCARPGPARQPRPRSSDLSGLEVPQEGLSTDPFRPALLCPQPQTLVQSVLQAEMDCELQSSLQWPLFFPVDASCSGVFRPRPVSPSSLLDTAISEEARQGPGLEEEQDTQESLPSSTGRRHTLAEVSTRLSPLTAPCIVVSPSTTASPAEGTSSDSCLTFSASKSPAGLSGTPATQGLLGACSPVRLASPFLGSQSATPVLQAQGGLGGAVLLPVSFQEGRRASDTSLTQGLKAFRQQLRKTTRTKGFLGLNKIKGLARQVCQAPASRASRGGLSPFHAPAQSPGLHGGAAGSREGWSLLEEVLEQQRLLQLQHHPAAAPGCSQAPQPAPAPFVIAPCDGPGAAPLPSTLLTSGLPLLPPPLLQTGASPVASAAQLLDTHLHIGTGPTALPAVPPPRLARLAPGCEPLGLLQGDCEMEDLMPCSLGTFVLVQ

[26] = EC50 pY703 auto-phosphorylation
[27] = EC50 pY719 auto-phosphorylation
[28] = EC50 pY823 auto-phosphorylation

For `COc1cc(C(=O)NCC(=O)Nc2ccc3c(/C=C/c4ccccn4)n[nH]c3c2)cc(OC)c1OC` [CHMFL-KIT-031], the KINOMEScan profiling value [1] was 94, the EC50 [2, 26] was 0.151 µM and the EC50 [2, 27] was 0.137 µM. For the same molecule, the EC50 [2, 28] was 0.118 µM, the KINOMEScan profiling value [3] was 100 and the KINOMEScan profiling value [4] was 100. For the same molecule, the KINOMEScan profiling value [5] was 100, the “selectivity over KIT wt (IC50)” value ([6]; ADP-Glo, KIT V559D vs KIT wt) was “about 6 fold” and the IC50 ([6]; purified kinase protein, ADP-Glo, 100 μM ATP) was 0.0282 µM and 0.028 µM. For the same molecule, the “selectivity over KIT wt” value ([6]; summary statement) was 10 fold, the TGI ([7]; 100mg/kg/d IP, 10 days) was 68.5% and the “KIT, AKT, S6 and STAT3 phosphorylation in tumor tissue” value ([7]; starting from 50 mg/kg, Western blot after 10-day treatment) was “significantly affect”. The KINOMEScan profiling value [8] was 100, the KINOMEScan profiling value [9] was 94 and the EC50 [10, 26] was > 10 µM. The EC50 [10, 27] was > 10 µM, the EC50 [10, 28] was 4.59 µM and the KINOMEScan profiling value [11] was 100. For the same molecule, the KINOMEScan profiling value [12] was 100, the IC50 [13] was 0.168 µM and the EC50 [14] was > 10 µM. The EC50 ([14]; read-out: EC50 pY719 auto-phosphorylation, KIT A829P transformed BaF3 cells, 2h) was > 10 µM, the EC50 ([14]; read-out: EC50 pY823 auto-phosphorylation, KIT A829P transformed BaF3 cells, 2h) was > 10 µM and the KINOMEScan profiling value [15] was 73. The KINOMEScan profiling value [16] was 100, the GI50 [17] was > 10 µM and the KINOMEScan profiling value [18] was 100. It also gave a Kd [19] of 0.266 µM, an EC50 ([20]; COLO 320DM (KIT wt), SCF stimulation, read-out: EC50 P-CKIT Y719) of 5.62 µM and an EC50 ([20]; COLO 320DM (KIT wt), SCF stimulation, read-out: EC50 P-CKIT Y823) of 9.7 µM. The EC50 ([20]; in cell, KIT wt, read-out: EC50 pY703) was 2 µM, the KINOMEScan profiling value [21] was 59 and the KINOMEScan profiling value [22] was 91. For the same molecule, the KINOMEScan profiling value [23] was 100, the KINOMEScan profiling value [24] was 100 and the KINOMEScan profiling value [25] was 100.
